The values below come from EP1043979B1, “COMPOSITIONS FOR THE TRANSDERMAL AND DERMAL ADMINISTRATION OF BIOLOGICALLY ACTIVE AGENTS” (PULITZER ITALIANA S.r.l., priority 1997, dated 1999).

The data set is described as follows: In vitro transdermal flux of nitroglycerin from TTS patches, Franz diffusion cells, HPLC of receiving medium. It is filed as in vitro ADME, human. The source says:
The transdermal delivery devices employed in this example and in the following ones were produced according to the following procedure. A matrix layer containing the active substance, the adhesive and, when present, the permeation enhancer and the absorption assistant was obtained by uniformly spreading a solution of the components, with the proper concentration, viscosity and quantitative composition, on the silanised or fluorinated surface of a polyester protective layer. After evaporating the solvent at 70-80°C for 15-20 min. a final layer of a homogeneous thickness was obtained. weighing about 10 mg/cm^2 and having the desired composition. The composition had been preliminarily fixed taking into account the amount of solvent to be removed. During the above operation the adhesive employed underwent the required cross-linking reaction. […]
On the transdermal devices thus produced in vitro release tests were carried out, employing methods well known to this aim (Merrit e. Cooper, J. Controlled Release, 1984, 1, 161), that have been further developed more recently (Reifenrath et al., J. Pharm. Sci., 80, 1991, 526). […] The tested patches were applied to the exposed side of the skin, and the transdermal flux was measured by analysing (by HPLC) the receiving medium. […]

`CC(=O)NCCO` [N-(2-hydroxyethyl)acetamide]: the activity as enhancer entry (N-(2-hydroxyethyl)acetamide alone, 3-7% in nitroglycerin TTS (Table 2)) was “does not possess any significant activity as enhancer”.

With sorbitan monooleate, the transdermal permeation entry is on record as “relative reduction of the transdermal permeation”.
